# Test results as given in US9949475B2, “Composition comprising active ingredient, oil and ionic liquid” (priority 2011, dated 2018).
# Like-named read-outs stand apart in the source and are kept apart here.
# Assay: Solubility of UV absorber in oil comprising ionic liquid
# Format: physicochemical
# Conditions: for solubility: 21 °C, thermodynamic from solid, read-out: Solubility of Tinosorb ® S with Cetiol ® B as oil; for Solubility of Uvinul ® T150 with Cetiol ® B as oil: 21° C.
# Protocol: For this, increasing amounts of active ingredient were added stepwise to oil (Cetiol® B or Solvesso®), which comprised the ionic liquid, until the maximum solubility was reached. Alternatively, the oil, which comprised the ionic liquid, was saturated with the active ingredient and the soluble fraction of active ingredient was quantified by means of HPLC.
smiles,measurement,setting,value
"CCCCC(CC)COc1ccc(-c2nc(-c3ccc(OC)cc3)nc(-c3ccc(OCC(CC)CCCC)cc3O)n2)c(O)c1 (centres unmarked) [Tinosorb ® S, bis-ethylhexyloxyphenol methoxyphenyl triazine]",solubility,"neat ionic liquid (no oil), organic solvent or mixture, 100 IL (no oil), IL N-butyl-N′-methylimidazolium acetate",1 mg/mL
same,solubility,"neat ionic liquid (no oil), organic solvent or mixture, 100 IL (no oil), IL N-ethyl-N′-ethylimidazolium heptanoate",1 mg/mL
same,solubility,"neat ionic liquid (no oil), organic solvent or mixture, 100 IL (no oil), IL N-ethyl-N′-ethylimidazolium octanoate",1 mg/mL
same,solubility,"neat ionic liquid (no oil), organic solvent or mixture, 100 IL (no oil), IL N-ethyl-N′-methylimidazolium isononanoate",9.5 mg/mL
same,solubility,"neat oil (no ionic liquid), oil or lipid, 100 Oil (Cetiol B, no IL)",6.2 mg/mL
same,solubility,"oil/ionic liquid mixture, oil or lipid, Oil/IL 20/80 weight ratio, IL N-butyl-N′-methylimidazolium acetate",12.4 mg/mL
same,solubility,"oil/ionic liquid mixture, oil or lipid, Oil/IL 20/80 weight ratio, IL N-ethyl-N′-ethylimidazolium octanoate",16.7 mg/mL
same,solubility,"oil/ionic liquid mixture, oil or lipid, Oil/IL 20/80 weight ratio, IL N-ethyl-N′-methylimidazolium isononanoate",19.2 mg/mL
same,solubility,"oil/ionic liquid mixture, oil or lipid, Oil/IL 60/40 weight ratio, IL N-butyl-N′-methylimidazolium acetate",14.3 mg/mL
same,solubility,"oil/ionic liquid mixture, oil or lipid, Oil/IL 60/40 weight ratio, IL N-ethyl-N′-ethylimidazolium heptanoate",21.9 mg/mL
same,solubility,"oil/ionic liquid mixture, oil or lipid, Oil/IL 60/40 weight ratio, IL N-ethyl-N′-ethylimidazolium octanoate",21.9 mg/mL
same,solubility,"oil/ionic liquid mixture, oil or lipid, Oil/IL 60/40 weight ratio, IL N-ethyl-N′-methylimidazolium isononanoate",22.4 mg/mL
same,solubility,"oil/ionic liquid mixture, oil or lipid, Oil/IL 90/10 weight ratio, IL N-butyl-N′-methylimidazolium acetate",11.7 mg/mL
same,solubility,"oil/ionic liquid mixture, oil or lipid, Oil/IL 90/10 weight ratio, IL N-ethyl-N′-ethylimidazolium heptanoate",13 mg/mL
same,solubility,"oil/ionic liquid mixture, oil or lipid, Oil/IL 90/10 weight ratio, IL N-ethyl-N′-ethylimidazolium octanoate",13 mg/mL
same,solubility,"oil/ionic liquid mixture, oil or lipid, Oil/IL 90/10 weight ratio, IL N-ethyl-N′-methylimidazolium isononanoate",13.8 mg/mL
"CCCCC(CC)COC(=O)c1ccc(Nc2nc(Nc3ccc(C(=O)OCC(CC)CCCC)cc3)nc(Nc3ccc(C(=O)OCC(CC)CCCC)cc3)n2)cc1 (centres unmarked) [Uvinul ® T150, 2,4,6-trianilino-p-(carbo-2′-ethylhexyl-1′-oxy)-1,3,5-triazine]",Solubility of Uvinul ® T150 with Cetiol ® B as oil,"100 IL (no oil), IL Cholinium [2-(2-methoxyethoxy)ethoxy]acetate",1 mg/mL
same,Solubility of Uvinul ® T150 with Cetiol ® B as oil,"100 IL (no oil), IL N-butyl-N′-methylimidazolium acetate",5 mg/mL
same,Solubility of Uvinul ® T150 with Cetiol ® B as oil,"100 IL (no oil), IL N-ethyl-N′-ethylimidazolium propionate",5 mg/mL
same,Solubility of Uvinul ® T150 with Cetiol ® B as oil,"100 IL (no oil), IL N-ethyl-N′-methylimidazolium acetate",1 mg/mL
same,Solubility of Uvinul ® T150 with Cetiol ® B as oil,"100 IL (no oil), IL N-ethyl-N′-methylimidazolium isononanoate",1 mg/mL
same,Solubility of Uvinul ® T150 with Cetiol ® B as oil,"100 Oil (Cetiol B, no IL)",14.2 mg/mL
same,Solubility of Uvinul ® T150 with Cetiol ® B as oil,"Oil/IL 20/80 weight ratio, IL N-butyl-N′-methylimidazolium acetate",41.5 mg/mL
same,Solubility of Uvinul ® T150 with Cetiol ® B as oil,"Oil/IL 20/80 weight ratio, IL N-ethyl-N′-ethylimidazolium propionate",44.1 mg/mL
same,Solubility of Uvinul ® T150 with Cetiol ® B as oil,"Oil/IL 20/80 weight ratio, IL N-ethyl-N′-methylimidazolium acetate",40.8 mg/mL
same,Solubility of Uvinul ® T150 with Cetiol ® B as oil,"Oil/IL 20/80 weight ratio, IL N-ethyl-N′-methylimidazolium isononanoate",34.8 mg/mL
same,Solubility of Uvinul ® T150 with Cetiol ® B as oil,"Oil/IL 60/40 weight ratio, IL N-butyl-N′-methylimidazolium acetate",54.1 mg/mL
same,Solubility of Uvinul ® T150 with Cetiol ® B as oil,"Oil/IL 60/40 weight ratio, IL N-ethyl-N′-ethylimidazolium propionate",54.3 mg/mL
same,Solubility of Uvinul ® T150 with Cetiol ® B as oil,"Oil/IL 60/40 weight ratio, IL N-ethyl-N′-methylimidazolium acetate",52.8 mg/mL
same,Solubility of Uvinul ® T150 with Cetiol ® B as oil,"Oil/IL 60/40 weight ratio, IL N-ethyl-N′-methylimidazolium isononanoate",45.7 mg/mL
same,Solubility of Uvinul ® T150 with Cetiol ® B as oil,"Oil/IL 90/10 weight ratio, IL Cholinium [2-(2-methoxyethoxy)ethoxy]acetate",21.3 mg/mL
same,Solubility of Uvinul ® T150 with Cetiol ® B as oil,"Oil/IL 90/10 weight ratio, IL N-butyl-N′-methylimidazolium acetate",37.5 mg/mL
same,Solubility of Uvinul ® T150 with Cetiol ® B as oil,"Oil/IL 90/10 weight ratio, IL N-ethyl-N′-ethylimidazolium propionate",33.3 mg/mL
same,Solubility of Uvinul ® T150 with Cetiol ® B as oil,"Oil/IL 90/10 weight ratio, IL N-ethyl-N′-methylimidazolium acetate",37.5 mg/mL
same,Solubility of Uvinul ® T150 with Cetiol ® B as oil,"Oil/IL 90/10 weight ratio, IL N-ethyl-N′-methylimidazolium isononanoate",32.4 mg/mL
